Values quoted from earlier work as cited in patent publication US20210298340A1, “Cannabis-Infused Product with Extended Cannabinoid Profile User Experience” (HEXO Operations Inc., priority 2018, published 2021).
Read-outs that look alike come from different tables or passages of the source.

Key:
[1] = dogs; emulsion with droplet size 119 nm or 52 nm
[2] = rats; solution in MCT oil or emulsion with droplet size 160 nm or 710 nm
skin = settings: 3 macro-emulsions >1000 nm and 3 nano-emulsions <100 nm

## CCCCN(CCCC)CCC(O)c1cc2c(Cl)cc(Cl)cc2c2cc(C(F)(F)F)ccc12 (stereo not drawn) [halofantrine]
[1]
  bioavailability: comparable

## COc1nc(C(Cl)(Cl)Cl)c(Cl)c(OC)c1Cl [penclomedine]
[2]
  bioavailability: comparable

## CCCCNc1ccc(C(=O)OCCN(C)C)cc1 [tetracaine]
skin
  influence of emulsion droplet size on in vitro dermal and transdermal skin penetration: no influence
